# Measured values from patent publication US20250304550A1, “BROMODOMAIN AND EXTRA-TERMINAL (BET) SUBFAMILY BROMODOMAIN 1 (BD1) SELECTIVE INHIBITORS AND METHODS USING SAME” (Baylor College of Medicine, priority 2022, published 2025).
# pEC50, pIC50: −log10 of the molar value.
# Key:
# BRD4-BD2 = BRD4-BD2 (Homo sapiens (Human), UniProt O60885); assay: AlphaScreen bromodomain proximity assay (biotinylated JQ1 competition); type: binding; conditions: in Table 4 '—' = not efficient
# BRD4-BD1 [1] = target: T1, BRD4-BD1 (Homo sapiens (Human), UniProt O60885); assay: as above; type: binding
# BRDT-BD2 = BRDT-BD2 (Homo sapiens (Human), UniProt Q58F21); assay: as above; type: binding; conditions: in Table 4 '—' = not efficient
# BRDT-BD1 [2] = target: T2, BRDT-BD1 (Homo sapiens (Human), UniProt Q58F21); assay: as above; type: binding; conditions: for BRDT-BD1 vs. BRDT-BD2 fold: BD1 selectivity, AlphaScreen IC50 ratio
# AML cell line MV4; 11 = assay: Cell viability testing (CellTiterGlo, 72 hours); type: cell-based; conditions: Homo sapiens, '—' = not efficient
# BRD3-BD1 = BRD3-BD1 (Homo sapiens (Human), UniProt Q15059); assay: BromoKdELECT assay; type: binding
# BRDT-BD1 [3] = target: T2, BRDT-BD1; assay: BromoKdELECT assay; type: binding
# [4] = Metabolic stability assay in mouse liver microsomes; type: in vitro ADME; conditions: mouse, microsomes
# [5] = system: MV4; 11 and MOLM-13 cells; assay: Cell cycle analysis by flow cytometry; type: cell-based; conditions: 24 hours of treatment at the IC50
# [6] = Metabolic stability assay in human liver microsomes; type: in vitro ADME; conditions: human, microsomes
# NanoLuc-BET BD1 = assay: NanoBRET target engagement intracellular BET bromodomain assay in HEK293 cells; type: cell-based, human; conditions: transiently transfected HEK293 cells
# BRD2-BD1 = BRD2-BD1 (Homo sapiens (Human), UniProt P25440); assay: BromoKdELECT assay; type: binding
# BRD4-BD1 [7] = target: T1, BRD4-BD1; assay: BromoKdELECT assay; type: binding
# [8] = system: MYC and GAPDH expression in MV4; 11 and MOLM-13 cells; assay: Quantitative RT-PCR analysis of MYC and GAPDH expression; type: cell-based; conditions: 8 hours of treatment, both cell lines
# NanoLuc-BRD4-BD2 = NanoLuc-BRD4-BD2 (Homo sapiens (Human), UniProt O60885); assay: NanoBRET target engagement intracellular BET bromodomain assay in HEK293 cells; type: cell-based; conditions: transiently transfected HEK293 cells
# NanoLuc-BRDT-BD2 = NanoLuc-BRDT-BD2 (Homo sapiens (Human), UniProt Q58F21); assay: as above; type: cell-based; conditions: transiently transfected HEK293 cells
# [9] = system: MV4; 11 and MOLM-13 cells; assay: Apoptosis detection (Annexin V) by flow cytometry; type: cell-based; conditions: 72 hours of treatment
# BRD3-BD1, sequence (Q15059 34-140): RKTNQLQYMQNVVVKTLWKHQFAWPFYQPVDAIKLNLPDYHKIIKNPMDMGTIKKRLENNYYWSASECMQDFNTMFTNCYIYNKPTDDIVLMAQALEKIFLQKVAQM
# BRD2-BD1, sequence (P25440 74-180): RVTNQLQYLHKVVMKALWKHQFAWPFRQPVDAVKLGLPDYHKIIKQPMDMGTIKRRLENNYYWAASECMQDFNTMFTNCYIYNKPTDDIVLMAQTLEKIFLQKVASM
smiles,measurement,setting,value
"CNC(=O)[C@@H](CC1CCN(C(=O)Cc2ccc3[nH]c(=O)ccc3c2)CC1)NC(=O)c1ccc(-c2ccccc2)cn1 [Compound 10, (R)-N-(1-(methylamino)-1-oxo-3-(1-(2-(2-oxo-1,2-dihydroquinolin-6-yl)acetyl)piperidin-4-yl)propan-2-yl)-5-phenylpicolinamide]",pIC50,BRD4-BD2,4.78
same,pIC50,BRD4-BD1 [1]; AlphaScreen,8.15
same,fold loss of selectivity over BRD4-BD2,BRD4-BD1 [1]; AlphaScreen,1.6 fold
same,BRD4-BD1 vs. BRD4-BD2 fold,"BRD4-BD1 [1]; BD1 selectivity, AlphaScreen IC50 ratio","2,352 fold"
same,pIC50,BRDT-BD2,4.68
same,pIC50,BRDT-BD1 [2]; AlphaScreen,8.27
same,BRDT-BD1 vs. BRDT-BD2 fold,BRDT-BD1 [2],"3,875 fold"
same,pEC50,AML cell line MV4; 11,6.84
"CNC(=O)[C@@H](CC1CCN(C(=O)Cc2ccc3[nH]c(=O)cc(C)c3c2)CC1)NC(=O)c1ccc(-c2ccc(C)cc2C)cn1 [Compound 2, (R)-5-(2,4-dimethylphenyl)-N-(3-(1-(2-(4-methyl-2-oxo-1,2-dihydroquinolin-6-yl)acetyl)piperidin-4-yl)-1-(methylamino)-1-oxopropan-2-yl)picolinamide]",pIC50,BRD3-BD1,9.89
same,BRD3-BD1 selectivity over BRD3-BD2,BRD3-BD1; BromoKdELECT,5920 fold
same,pIC50,BRDT-BD1 [3],9.66
same,metabolic stability in mouse liver microsomes (in words),[4],labile
same,effect on the cell cycle (in words),[5],induced Gi arrest
same,half-life at 2 μM,[6],33 min
same,"inhibition of tracer binding, BD1 vs BD2 (in words)",NanoLuc-BET BD1,more potent and selective for NanoLuc-BET BD1
same,BRD2-BD1 selectivity over BRD2-BD2,BRD2-BD1; BromoKdELECT,420 fold
same,pIC50,BRD2-BD1; printed as BRD2-BDT1,9.59
same,pIC50,BRDT-BD1 [2]; AlphaScreen,8.68
same,fold more potent than (+)-JQ1 for BRDT-BD1,BRDT-BD1 [2]; AlphaScreen,22 fold
same,BRDT-BD1 vs. BRDT-BD2 fold,BRDT-BD1 [2],~5000 fold
same,pIC50,BRD4-BD1 [7],9.54
same,MYC expression (in words),[8],suppressed
same,effects on GAPDH expression (in words),[8],no/minimal effects
same,effect against BRD4-BD2 in NanoBRET (in words),NanoLuc-BRD4-BD2,no effect
same,effect against BRDT-BD2 in NanoBRET (in words),NanoLuc-BRDT-BD2,no effect
same,"apoptosis, Annexin V+ cells (in words)",[9],induced
